In patent US9358220B2, “Method of treating acne” (THESAN PHARMACEUTICALS, INC., priority 2008, dated 2016):
Read-outs that look alike come from different tables or passages of the source. One block for each molecule: values may come before it.

Legend:
AhR [1] = biological target: T1, AhR (Homo sapiens, UniProt P35869); assay: AhR activation test, luciferase reporter plox-XRE TATA-Luc in HEP G2 cells; format: cell-based; design: endogenous in cells; host or cells: Hep G2 cells transduced with the reporter lentivector plox-XRE TATA-Luc; conditions: for AhR percentage activation compared to 0.01 μM TCDD: HEP G2 cells, most active concentration in the range tested
T1 sequence (P35869 11-848): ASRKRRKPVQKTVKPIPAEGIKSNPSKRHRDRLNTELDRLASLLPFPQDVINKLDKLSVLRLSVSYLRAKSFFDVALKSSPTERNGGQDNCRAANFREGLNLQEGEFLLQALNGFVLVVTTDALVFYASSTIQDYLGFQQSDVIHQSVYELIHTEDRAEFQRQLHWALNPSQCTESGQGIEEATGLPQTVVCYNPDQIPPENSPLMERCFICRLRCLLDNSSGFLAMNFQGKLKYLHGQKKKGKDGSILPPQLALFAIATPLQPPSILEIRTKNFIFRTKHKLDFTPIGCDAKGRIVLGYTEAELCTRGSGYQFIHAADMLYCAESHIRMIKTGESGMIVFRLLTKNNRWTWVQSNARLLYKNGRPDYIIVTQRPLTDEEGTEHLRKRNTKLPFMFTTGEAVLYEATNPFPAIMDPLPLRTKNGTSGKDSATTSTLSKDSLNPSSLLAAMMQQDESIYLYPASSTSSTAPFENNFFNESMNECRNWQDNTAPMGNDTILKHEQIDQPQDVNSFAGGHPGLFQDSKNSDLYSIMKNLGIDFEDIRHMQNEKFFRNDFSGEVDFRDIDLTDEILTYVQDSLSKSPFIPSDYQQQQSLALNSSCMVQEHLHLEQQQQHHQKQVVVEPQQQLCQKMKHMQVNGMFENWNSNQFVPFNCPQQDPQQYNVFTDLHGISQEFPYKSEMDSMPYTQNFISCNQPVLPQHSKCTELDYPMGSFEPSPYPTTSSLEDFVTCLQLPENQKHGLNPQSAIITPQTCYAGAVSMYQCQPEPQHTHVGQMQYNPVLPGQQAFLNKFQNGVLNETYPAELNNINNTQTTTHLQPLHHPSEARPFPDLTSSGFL
Description: (§1) The Hep G2 cells are cultured in DMEM (Gibco)+10% fetal bovine serum+penicillin+streptomycin, the NHKs in keratinocyte SFM medium (Gibco)+penicillin+streptomycin. At DO, the Hep G2 cells are seeded into 12-well plates in a proportion of approximately 30 000 cells/cm^2. The NHKs are seeded into 6-well plates in a proportion of approximately 15 000 cells/cm^2. After 24 h, the medium is replaced with fresh medium and the cells are transduced with the lentivector plox-XRE TATA-Luc. After 48 h, the cells are subcultured and maintained in culture, and tested for their reactivity to TCDD.
The tests are carried out using the luciferase reporter assay system kit from Promega. At DO, the cells are seeded at a density of approximately 60% confluence, and then treated, at Dl, with the test substance diluted to various concentrations in the appropriate culture medium. At D2, the cells are lysed in CLB buffer, and the lysate is clarified by centrifugation for 5 min at 10 000 g. The luciferase activity is measured in 20 microliters of lysate as recommended by the supplier, using the luminoskan luminometer (Thermo).

chronic wounds = assay: Chronic human leg wounds with dermatoporosis treated with tryptophan gel; format: in vivo
seborrhea = assay: Sebumetric measurement of casual sebum levels on the face of hyperseborrheic men; format: in vivo, human; conditions: gel containing 1% tryptophan on the face of two hyperseborrheic men for 3 weeks
From the text: The effect shown in FIG. 16, where it is seen that Propionibacterium acnes (PA) generates an AhR activation, which is highly accentuated by the addition of tryptophan, can be taken advantage of in the context of this invention. This is because PA is one of the key players in sebaceous gland diseases, and it is present in large amounts in facial skin. It could therefore contribute to producing therapeutic amounts of AhR ligands in the presence of tryptophan, or also other aromatic amino acids such as tyrosine and phenylalanine. In order to explore the relevance of this approach, the applicant carried out a test by applying a gel containing 1% tryptophan to the face of two hyperseborrheic men for 3 weeks, and observed a decrease in the seborrhea which could be evaluated at 40% of the starting value using sebumetric measurement of the casual sebum levels.

human keratinocytes = assay: Wound healing in vitro on a culture of human keratinocytes (migration index); format: cell-based
Description: The wound is induced by means of an incision with a yellow micropipette tip (10-200 μl). Migration index value obtained with the ligand/that of the control without ligand. […] This indicates an activity of the AhR activation pathway on the migration of keratinocytes which is found in vivo in humans (FIGS. 5, 6, 10).

AhR [2] = biological target: T1, AhR; assay: Test for potentiation by bacterial flora: AhR activation in HEP G2 cells with skin bacteria extracts and tryptophan; format: cell-based; design: endogenous in cells; host or cells: Hep G2 cells transduced with the reporter lentivector plox-XRE TATA-Luc
Description: The activation value 25.00 on the Y-axis corresponds to ⅙ of the AhR stimulation by 10 nM TCDD in this same system (157.00).

CYPlAl [3] = assay: CYP1A1 activity test (P450-GLO assay) in Hep G2 cells
Description: The tests are carried out using the P450-GLO assay kit from Promega. At D0, the cells are seeded at a density of approximately 60% confluence, and then treated at Dl with the test substance diluted to various concentrations in the appropriate culture medium. At D2, the CYPlAl activity is measured as recommended by the supplier, using the nonlytic protocol on a cell monolayer.

AhR [4] = biological target: T1, AhR; assay: AhR activation test, luciferase reporter plox-XRE TATA-Luc in normal human keratinocytes; format: cell-based; design: endogenous in cells; host or cells: normal human keratinocytes (NHKs) transduced with the reporter lentivector plox-XRE TATA-Luc; conditions: NHK-plox-XRE TATA-Luc cells, 10 nM, 24 h
Description: FIGS. 14, 15 and 16 show AhR activation in HEP G2 cells and normal human keratinocytes (NHKs) stably transfected with the lentivector plox-XRE TATA-Luc.
as §1
The tests are carried out using the luciferase reporter assay system kit from Promega. […] At D2, the cells are lysed in CLB buffer, and the lysate is clarified by centrifugation for 5 min at 10 000 g. The luciferase activity is measured in 20 microliters of lysate as recommended by the supplier, using the luminoskan luminometer (Thermo).
Similar results are noted.

human skin [5] = assay: Estradiol (E2) concentration in human skin exposed to TCDD by ELISA; format: in vivo; conditions: human skin containing 1800 ppt of TCDD versus controls
sebaceous glands [6] = assay: Sebaceous glands in biopsies of human skin exposed to TCDD (histology); format: in vivo; conditions: human skin containing 930 to 2900 ppt of TCDD; 62 biopsies, 620 sections
Description: The sebaceous glands, which are present in large numbers in normal human skin, disappear during exposure to toxic doses of TCDD. […] Thus, on the face of an adult, the number is between 400 and 900/cm^2.
For each site, 3 to 10 skin biopsies were analyzed after fixing with formol and staining with hematin-eosin. At least 10 sections per block were analyzed.

[7] = human organism; cited from earlier work
[8] = system: staphylococcus sp, P. acnes; assay: Bacterial colonization of human skin exposed to TCDD (CFU per cm^2); format: in vivo
human skin [9] = assay: Messenger RNA expression (RT PCR, transcriptome) in human skin exposed to TCDD; format: in vivo
From the text: This observation identifies a new target for medicaments aimed at modulating sebaceous function, a concept exemplified here by AhR activation.
The expression of the messenger RNAs of vascular endothelial growth factors (VEGFs) and of their receptors is increased in skin exposed to TCDD.
The expression of the messenger RNAs of the various estrogen receptors ESRR and ER, of the estrogen responsive finger protein (EFP) ligase and of the estrogen-producing aromatase enzyme is increased in skin exposed to TCDD.

dermabrasions = assay: Healing of superficial epidermal-dermal wounds (dermabrasions) in human skin containing TCDD; format: in vivo
From the text: Thus, the time to complete healing is reduced from 9.3 to 5 days.

CYPlAl [10] = assay: CYP1A1 activity test (P450-GLO assay) in NHK cells; format: cell-based, human; conditions: 10 nM, 24 h
sebaceous glands [11] = assay: Sebaceous glands in the ear skin of C57BL/6 mice after topical application; format: in vivo
From the text: The effect on the sebaceous glands can be reproduced in animals by topical application of TCDD. A 95% reduction in the number of sebaceous glands can be observed in C57BL/6 mice after 45 days of application of 2 mcg/ml TCDD (FIG. 2).
To reproduce the useful effect of TCDD, in a therapeutic reduction approach the reduction in the surface area of the sebaceous glands in the ears of C57BL/6 mice treated once a day for 45 d with various ligands according to the invention can be studied. The surface area of the sebaceous glands is measured on three serial sections per animal. A reduction of greater than 40% is sought, and obtained here with a concentration, a treatment time and an application frequency considered to be minimal. Isotretinoin is shown by way of example of a product used for the topical and systemic treatment of acne.
The topical application of an AhR ligand such as 6-formylindolo[3,2-b]carbazole (FICZ), at a concentration of 100 mcg/ml, makes it possible to obtain a significant decrease in the sebaceous glands, of the order of 40%. Other ligands according to the invention (see FIGS. 14, 15 and 17) also lead to a decrease in the surface area of the sebaceous glands.

[12] = human skin containing 1800 ppt of TCDD versus controls

AhR percentage activation compared to 0.01 μM TCDD (AhR [1]): greatest activities
SMILES: O=c1cc(O)cc(/C=C/c2ccc(O)c(O)c2)o1 [hispidin, Hispidin]

SMILES: N[C@@H](Cc1c[nH]c2ccccc12)C(=O)O [tryptophan]
dermatoporotic skin around the wound (chronic wounds): thickening of the dermatoporotic skin around the wound
healing of chronic wounds (chronic wounds; series of 10 cases of chronic wounds on legs): Contraction of chronic wounds and the development of epithelial healing
decrease in the seborrhea (casual sebum levels), of the starting value (seborrhea): 40%
AhR percentage activation compared to 0.01 μM TCDD (AhR [1]): greatest activities
stimulation of healing (migration index) (human keratinocytes; μM concentrations): strong stimulation of healing
AhR activation with bacterial extract on addition of tryptophan (AhR [2]; in particular with P. acnes extract): an increase in the activation is observed

SMILES: CCOC(=O)c1cc2c(cn1)[nH]c1ccccc12 [B-CCE, Ethyl β-carboline-3-carboxylate]
AhR percentage activation compared to 0.01 μM TCDD (AhR [1]): greatest activities
induction of CYPlAl activity by ligands according to the invention (CYPlAl [3]; FIG. 17, cell type not stated for the ligands): induction of this AhR-dependent biological activity

SMILES: COc1ccccc1OCCNCC(O)COc1cccc2[nH]c3ccccc3c12 (stereo not shown) [carvedilol, Carvedilol]
induction of CYPlAl activity by ligands according to the invention (CYPlAl [3]): induction of this AhR-dependent biological activity

SMILES: Clc1cc2c(cc1Cl)Oc1cc(Cl)c(Cl)cc1O2 [TCDD, 2,3,7,8-tetrachlorodibenzo-p-dioxin]
induction of the luciferase activity (AhR [4]): 10 fold
concentration of estradiol (E2) in skin (human skin [5]): increase in the concentration of estradiol
sebaceous glands observed in skin biopsies (sebaceous glands [6]): no sebaceous gland could be observed
half-life in human tissues [7]: 4-12 years
induction of the luciferase activity (AhR [1]; Hep G2-plox-XRE TATA-Luc cells, 10 nM, 24 h): 100 fold
P. acnes colonization of skin ([8]; human skin exposed to TCDD): same effect is observed
colonization of skin by staphylococcus sp (CFU per cm^2) ([8]; human with more than 900 ppt of TCDD in the skin, 4 samples 1 month apart): very greatly decreased
effect on healing at the highest concentrations (human keratinocytes): a decrease in the effect, or even an inhibition of healing
stimulation of healing (migration index) (human keratinocytes; nM concentrations): strong stimulation of healing
expression of messenger RNAs of estrogen receptors ESRR and ER, EFP ligase and aromatase (human skin [9]; [12]): increased
expression of messenger RNAs of vascular endothelial growth factors (VEGFs) and their receptors (human skin [9]; [12]): increased
hyaluronate in the dermis (human skin [9]; human skin exposed to TCDD): very substantial accumulation of hyaluronate in the dermis
messenger RNAs of sebaceous lipogenesis enzymes (human skin [9]; human skin exposed to TCDD, whole transcriptome): considerable reduction
time in which epidermal-dermal wounds are covered (dermabrasions; human exposed to TCDD, average healing time ordinarily 10 days): 3 days
time to complete healing of dermabrasions (dermabrasions; human skin with 930 to 2900 ppt TCDD, controls 9.3 days): 5 days
induction of the CYPlAl activity (CYPlAl [10]): 20 fold
AhR stimulation (activation value on the Y-axis) (AhR [2]; 10 nM): 157.00
induction of the CYPlAl activity (CYPlAl [3]; Hep G2 cells, 10 nM, 24 h): 250 fold
reduction in the number of sebaceous glands (sebaceous glands [11]; C57BL/6 mice, topical 2 mcg/ml, 45 days): 95%

AhR percentage activation compared to 0.01 μM TCDD (AhR [1]): greatest activities
SMILES: O=Cc1c2c(cc3c1=Nc1ccccc1-3)=Nc1ccccc1-2 [FICZ, 6-Formylindolo[3,2-b]carbazole]
effect on healing at the highest concentrations (human keratinocytes): a decrease in the effect, or even an inhibition of healing
stimulation of healing (migration index) (human keratinocytes; μM concentrations): strong stimulation of healing
decrease in the sebaceous glands (sebaceous glands [11]; C57BL/6 mice ears, topical 100 mcg/ml, once a day for 45 d): ~40%

SMILES: O=c1c2ccccc2nc2n1CCc1c-2[nH]c2ccccc12 [rutaecarpine, Rutaecarpine]
induction of CYPlAl activity by ligands according to the invention (CYPlAl [3]): induction of this AhR-dependent biological activity
